Usually EC50 stands for the midpoint of the concentration-response curve.

Molecules are shown by their SMILES.

In this experiment the target is T1, human GLP-1R (Homo sapiens, UniProt P43220).
T1 construct: host or cells: HEK293
T1 sequence (P43220 24-463): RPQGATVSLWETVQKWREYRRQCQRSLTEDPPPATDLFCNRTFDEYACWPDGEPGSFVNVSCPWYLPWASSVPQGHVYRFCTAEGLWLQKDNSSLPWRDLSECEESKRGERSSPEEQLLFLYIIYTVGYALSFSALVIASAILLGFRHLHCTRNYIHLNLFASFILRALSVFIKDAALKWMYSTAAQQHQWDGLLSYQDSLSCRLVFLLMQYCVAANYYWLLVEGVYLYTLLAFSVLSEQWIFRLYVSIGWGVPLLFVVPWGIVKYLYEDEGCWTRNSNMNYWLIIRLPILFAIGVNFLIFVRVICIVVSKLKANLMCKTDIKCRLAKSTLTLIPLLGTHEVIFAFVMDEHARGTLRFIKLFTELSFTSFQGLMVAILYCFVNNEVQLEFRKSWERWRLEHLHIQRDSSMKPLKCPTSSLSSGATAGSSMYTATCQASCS
Nature of the experiment: GLP-1R cAMP assay (Example B1a, HTRF, 30 min at room temperature). Type of experiment: cell-based. As to conditions: cAMP accumulation in HEK293 expressing human GLP-1R, no BETP, 30 min room temperature (Method B1a, compounds ID 1-609), Table 1; read-out: EC50. A digest of the protocol:
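Competitive HTRF read-out of cAMP after 30 min room-temperature stimulation, BETP absent, of human GLP-1R-HEK293 cells (1,000/well) in HEPES buffer with 500 μM IBMX and 0.1% BSA. Activation normalised to GLP-1(7-37) positive control. EC50 from 4-parameter non-linear regression.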
For `Cc1cc(-n2nc3c(c2-n2ccn(-c4ccc5c(cnn5C)c4F)c2=O)[C@@H]2CC[C@H](C3)N2C(=O)c2c(C)c3cc([C@H]4CCOC(C)(C)C4)ccc3n2[C@@]2(c3noc(=O)[nH]3)C[C@@H]2C)cc(C)c1F` [Compound 532, 3-[(1S,2S)-1-[5-[(4S)-2,2-dimethyltetrahydropyran-4-yl]-2-[(1S,8R)-4-(4-fluoro-3,5-dimethyl-phenyl)-3-[3-(4-fluoro-1-methyl-indazol-5-yl)-2-oxo-imidazol-1-yl]-4,5,11-triazatricyclo[6.2.1.02,6]undeca-2,5-diene-11-carbonyl]-3-methyl-indol-1-yl]-2-methyl-cyclopropyl]-4H-1,2,4-oxadiazol-5-one], the EC50 amounted to 0.672 µM.
Turning to `Cc1cc(-n2nc3c(c2-n2ccn(-c4ccc5c(cnn5C)c4F)c2=O)[C@@H]2CCC[C@H](C3)N2S(=O)(=O)c2cc3cc(C4CCOCC4)ccc3n2[C@@]2(c3noc(=O)[nH]3)C[C@@H]2C)cc(C)c1F` [Compound 533, 3-[(1S,2S)-1-[2-[[(1S,8R)-4-(4-fluoro-3,5-dimethyl-phenyl)-3-[3-(4-fluoro-1-methyl-indazol-5-yl)-2-oxo-imidazol-1-yl]-4,5,12-triazatricyclo[6.3.1.02,6]dodeca-2,5-dien-12-yl]sulfonyl]-5-tetrahydropyran-4-yl-indol-1-yl]-2-methyl-cyclopropyl]-4H-1,2,4-oxadiazol-5-one], the EC50 came out at 10.4 µM.
On to `Cc1cc(-n2nc3c(c2-n2ccn(-c4ccc5c(cnn5C)c4F)c2=O)[C@@H]2CCC[C@H](C3)N2S(=O)(=O)c2cc3cc(C4CCOCC4)ccc3n2[C@]2(c3noc(=O)[nH]3)C[C@@H]2C)cc(C)c1F` [Compound 534, 3-[(1R,2S)-1-[2-[[(1S,8R)-4-(4-fluoro-3,5-dimethyl-phenyl)-3-[3-(4-fluoro-1-methyl-indazol-5-yl)-2-oxo-imidazol-1-yl]-4,5,12-triazatricyclo[6.3.1.02,6]dodeca-2,5-dien-12-yl]sulfonyl]-5-tetrahydropyran-4-yl-indol-1-yl]-2-methyl-cyclopropyl]-4H-1,2,4-oxadiazol-5-one], for which the EC50 is at least 10 µM.
Next, `Cc1cc(-n2nc3c(c2-n2ccn(-c4ccc5c(cnn5C)c4F)c2=O)[C@@H]2CCC[C@H](C3)N2S(=O)(=O)c2cc3cc(N4CCOC5(CC5)C4)ccc3n2[C@@]2(c3noc(=O)[nH]3)C[C@@H]2C)cc(C)c1F` [Compound 535, 3-[(1S,2S)-1-[2-[[(1S,8R)-4-(4-fluoro-3,5-dimethyl-phenyl)-3-[3-(4-fluoro-1-methyl-indazol-5-yl)-2-oxo-imidazol-1-yl]-4,5,12-triazatricyclo[6.3.1.02,6]dodeca-2,5-dien-12-yl]sulfonyl]-5-(4-oxa-7-azaspiro[2.5]octan-7-yl)indol-1-yl]-2-methyl-cyclopropyl]-4H-1,2,4-oxadiazol-5-one]: 1.89 µM; `Cc1cc(-n2nc3c(c2-n2ccn(-c4ccc5c(cnn5C)c4F)c2=O)[C@@H]2COC[C@H](C3)N2S(=O)(=O)c2cc3cc([C@H]4CCOC(C)(C)C4)ccc3n2[C@@]2(c3noc(=O)[nH]3)C[C@@H]2C)cc(C)c1F` [Compound 536, 3-((1S,2S)-1-(5-((S)-2,2-dimethyltetrahydro-2H-pyran-4-yl)-2-(((4R,8S)-3-(3-(4-fluoro-1-methyl-1H-indazol-5-yl)-2-oxo-2,3-dihydro-1H-imidazol-1-yl)-2-(4-fluoro-3,5-dimethylphenyl)-2,4,5,7,8,9-hexahydro-4,8-epiminooxocino [5,4-c]pyrazol-10-yl)sulfonyl)-1H-indol-1-yl)-2-methylcyclopropyl)-1,2,4-oxadiazol-5 (4H)-one]: 0.262 µM.
With `Cc1cc(-n2nc3c(c2-n2ccn(-c4ccc5c(cnn5C)c4F)c2=O)[C@@H]2CCC[C@H](C3)N2C(=O)c2c(C)c3cc([C@H]4CCOC(C)(C)C4)ccc3n2[C@@]2(c3noc(=O)[nH]3)C[C@@H]2C)cc(C)c1F` [Compound 537, 3-[(1S,2S)-1-[5-[(4S)-2,2-dimethyltetrahydropyran-4-yl]-2-[(1S,8R)-4-(4-fluoro-3,5-dimethyl-phenyl)-3-[3-(4-fluoro-1-methyl-indazol-5-yl)-2-oxo-imidazol-1-yl]-4,5,12-triazatricyclo[6.3.1.02,6]dodeca-2,5-diene-12-carbonyl]-3-methyl-indol-1-yl]-2-methyl-cyclopropyl]-4H-1,2,4-oxadiazol-5-one], the EC50 was 1.34 µM.
For `Cc1cc(-n2nc3c(c2-n2ccn(-c4ccc5c(cnn5C)c4F)c2=O)[C@@H]2CCC[C@H](C3)N2S(=O)(=O)c2cc3cc(N4CCOC5(CC5)C4)ccc3n2[C@]2(c3noc(=O)[nH]3)C[C@@H]2C)cc(C)c1F` [Compound 538, 3-[(1R,2S)-1-[2-[[(1S,8R)-4-(4-fluoro-3,5-dimethyl-phenyl)-3-[3-(4-fluoro-1-methyl-indazol-5-yl)-2-oxo-imidazol-1-yl]-4,5,12-triazatricyclo[6.3.1.02,6]dodeca-2,5-dien-12-yl]sulfonyl]-5-(4-oxa-7-azaspiro[2.5]octan-7-yl)indol-1-yl]-2-methyl-cyclopropyl]-4H-1,2,4-oxadiazol-5-one] the value was at least 10 µM.
As to `Cc1cc(-n2nc3c(c2-n2ccn(-c4ccc5c(cnn5C)c4F)c2=O)[C@H]2CC[C@@H](C3)N2C(=O)c2cc3cc([C@H]4CCOC5(CC5)C4)ccc3n2[C@@]2(c3noc(=O)[nH]3)C[C@H]2C)cc(C)c1F` [Compound 539, 3-((1S,2R)-1-(2-((4R,7S)-3-(3-(4-fluoro-1-methyl-1H-indazol-5-yl)-2-oxo-2,3-dihydro-1H-imidazol-1-yl)-2-(4-fluoro-3,5-dimethylphenyl)-2,4,5,6,7,8-hexahydro-4,7-epiminocyclohepta [c]pyrazole-9-carbonyl)-5-((S)-4-oxaspiro[2.5]octan-7-yl)-1H-indol-1-yl)-2-methylcyclopropyl)-1,2,4-oxadiazol-5 (4H)-one], the EC50 is at least 10 µM.
As for `Cc1cc(-n2nc3c(c2-n2ccn(-c4ccc5c(cnn5C)c4F)c2=O)[C@H]2CC[C@@H](C3)N2C(=O)c2cc3cc([C@@H]4CCOC5(CC5)C4)ccc3n2[C@@]2(c3noc(=O)[nH]3)C[C@H]2C)cc(C)c1F` [Compound 540, 3-((1S,2R)-1-(2-((4R,7S)-3-(3-(4-fluoro-1-methyl-1H-indazol-5-yl)-2-oxo-2,3-dihydro-1H-imidazol-1-yl)-2-(4-fluoro-3,5-dimethylphenyl)-2,4,5,6,7,8-hexahydro-4,7-epiminocyclohepta [c]pyrazole-9-carbonyl)-5-((R)-4-oxaspiro[2.5]octan-7-yl)-1H-indol-1-yl)-2-methylcyclopropyl)-1,2,4-oxadiazol-5 (4H)-one], the EC50 is at least 10 µM.
`Cc1cc(-n2nc3c(c2-n2ccn(-c4ccc5c(cnn5C)c4F)c2=O)[C@@H]2CC[C@H](C3)N2C(=O)c2cc3cc([C@@H]4CCOC5(CC5)C4)ccc3n2[C@@]2(c3noc(=O)[nH]3)C[C@H]2C)cc(C)c1F` [Compound 541, 3-((1S,2R)-1-(2-((4S,7R)-3-(3-(4-fluoro-1-methyl-1H-indazol-5-yl)-2-oxo-2,3-dihydro-1H-imidazol-1-yl)-2-(4-fluoro-3,5-dimethylphenyl)-2,4,5,6,7,8-hexahydro-4,7-epiminocyclohepta [c]pyrazole-9-carbonyl)-5-((R)-4-oxaspiro[2.5]octan-7-yl)-1H-indol-1-yl)-2-methylcyclopropyl)-1,2,4-oxadiazol-5 (4H)-one]: the EC50 was at least 10 µM.
Turning to `Cc1cc(-n2nc3c(c2-n2ccn(-c4ccc5c(cnn5C)c4F)c2=O)[C@@H]2CC[C@H](C3)N2C(=O)c2cc3cc([C@H]4CCOC5(CC5)C4)ccc3n2[C@@]2(c3noc(=O)[nH]3)C[C@H]2C)cc(C)c1F` [Compound 542, 3-((1S,2R)-1-(2-((4S,7R)-3-(3-(4-fluoro-1-methyl-1H-indazol-5-yl)-2-oxo-2,3-dihydro-1H-imidazol-1-yl)-2-(4-fluoro-3,5-dimethylphenyl)-2,4,5,6,7,8-hexahydro-4,7-epiminocyclohepta [c]pyrazole-9-carbonyl)-5-((S)-4-oxaspiro[2.5]octan-7-yl)-1H-indol-1-yl)-2-methylcyclopropyl)-1,2,4-oxadiazol-5 (4H)-one], the EC50 was determined as 1.62 µM.
For `Cc1cc(-n2nc3c(c2-n2ccn(-c4ccc(C(=O)N(C)C5CC5)c(Cl)c4)c2=O)[C@@H]2CCC[C@H](C3)N2C(=O)c2cc3cc([C@H]4CCOC(C)(C)C4)ccc3n2[C@@]2(c3noc(=O)[nH]3)C[C@@H]2C)cc(C)c1F` [Compound 543, 2-chloro-N-cyclopropyl-4-[3-[(1S,8R)-12-[5-[(4S)-2,2-dimethyltetrahydropyran-4-yl]-1-[(1S,2S)-2-methyl-1-(5-oxo-4H-1,2,4-oxadiazol-3-yl)cyclopropyl]indole-2-carbonyl]-4-(4-fluoro-3,5-dimethyl-phenyl)-4,5,12-triazatricyclo[6.3.1.02,6]dodeca-2,5-dien-3-yl]-2-oxo-imidazol-1-yl]-N-methyl-benzamide] the value was at least 10 µM; for `CNC(=O)Cc1ccc(-n2ccn(-c3c4c(nn3-c3cc(C)c(F)c(C)c3)C[C@H]3CCC[C@@H]4N3C(=O)c3cc4cc([C@H]5CCOC(C)(C)C5)ccc4n3[C@@]3(c4noc(=O)[nH]4)C[C@@H]3C)c2=O)cc1` [Compound 544, 2-[4-[3-[(1S,8R)-12-[5-[(4S)-2,2-dimethyltetrahydropyran-4-yl]-1-[(1S,2S)-2-methyl-1-(5-oxo-4H-1,2,4-oxadiazol-3-yl)cyclopropyl]indole-2-carbonyl]-4-(4-luoro-3,5-dimethyl-phenyl)-f4,5,12-triazatricyclo[6.3.1.02,6]dodeca-2,5-dien-3-yl]-2-oxo-imidazol-1-yl]phenyl]-N-methyl-acetamide], at least 10 µM.

The record behind these values is patent US12617783B2, “Heterocyclic GLP-1R agonists” (BIOMEA FUSION, INC., priority 2024, dated 2026).
